In brackets after ≈: the same amount, converted by molar mass.
System: HIV-1 (RF)
Assay: HIV RNA assay: microplate based compound evaluation in HIV-1 infected MT-2 cells
Assay type: cell-based
Conditions: Human immunodeficiency virus 1, MT2; HIV-1 (RF) infected MT-2 cells; value used to standardize the virus inoculum; read-out: IC90 (concentration of compound required to reduce the HIV RNA level by 90%)
Procedure: Plasmid pDAB 72 containing both gag and pol sequences of BH10 (bp 113-1816) cloned into PTZ 19R was prepared according to Erickson-Vitanen et al. AIDS Research and Human Retroviruses 1989, 5, 577. The plasmid was linearized with Bam HI prior to the generation of in vitro RNA transcripts using the Riboprobe Gemini system II kit (Promega) with T7 RNA polymerase. Synthesized RNA was purified by treatment with RNase free DNAse (Promega), phenol-chloroform extraction, and ethanol precipitation. RNA transcripts were dissolved in water, and stored at −70EC. The concentration of RNA was determined from the A260.
Biotinylated capture probes were purified by HPLC after synthesis on an Applied Biosystems (Foster city, Calif.) DNA synthesizer by addition of biotin to the 5N terminal end of the oligonucleotide, using the biotin-phosphoramidite reagent of Cocuzza, Tet. Lett. 1989, 30, 6287. […]
MT-2 and MT-4 cells were maintained in RPMI 1640 supplemented with 5% fetal calf serum (FCS) for MT-2 cells or 10% FCS for MT-4 cells, 2 mM L-glutamine and 50 μg/mL gentamycin, all from Gibco. […] Infectious titers of HIV-1(RF) stocks were 1-3×10^7 PFU (plaque forming units)/mL as measured by plaque assay on MT-2 cells (see below). […]

Q: Which IC90 does the source give for `Nc1ccn([C@H]2CC[C@@H](CO)O2)c(=O)n1` [ddC, dideoxycytidine] here?
A: Its IC90 is 0.2 µg/mL (≈ 0.947 µM).

From US20060128634A1, “Alpha, alpha-disubstituted benzylglycine derivatives as HIV protease inhibitors” (priority 2002, published 2006)
